IC50 and Ki data for 13 compounds are collected here from ChEMBL document CHEMBL1131412, “N-[2-[4-(4-Chlorophenyl)piperazin-1-yl]ethyl]-3-methoxybenzamide: a potent and selective dopamine D4 ligand” (J Med Chem, 1998).

One test concerns the target T1, D(4) dopamine receptor (Homo sapiens, UniProt P21917).
T1 sequence (P21917 whole entry): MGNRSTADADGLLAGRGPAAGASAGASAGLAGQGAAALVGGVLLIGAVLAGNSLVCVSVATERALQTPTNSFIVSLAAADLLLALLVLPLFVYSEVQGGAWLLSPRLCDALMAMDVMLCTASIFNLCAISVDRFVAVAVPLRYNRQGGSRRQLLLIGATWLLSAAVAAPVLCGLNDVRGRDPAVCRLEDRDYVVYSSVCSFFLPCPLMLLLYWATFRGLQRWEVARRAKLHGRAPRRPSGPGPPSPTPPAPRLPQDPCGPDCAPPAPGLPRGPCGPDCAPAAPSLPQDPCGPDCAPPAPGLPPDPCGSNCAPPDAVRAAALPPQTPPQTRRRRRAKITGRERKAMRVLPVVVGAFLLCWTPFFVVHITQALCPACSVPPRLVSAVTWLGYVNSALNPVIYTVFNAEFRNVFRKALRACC
Kind of test: In vitro binding affinity at human cloned Dopamine receptor D4.2 by [3H]YM-09151-2 displacement.
Broadly, the IC50 is the point on the concentration scale where inhibition reaches its midpoint. Consider `COc1ccc(OC)c(C(=O)NCCN2CCN(c3ccccc3OC)CC2)c1`, for which the 50% inhibitory concentration (IC50) was determined as 7.8 nM.

In turn, `COc1cccc(C(=O)NCCN2CCN(Cc3ccccc3OC)CC2)c1` displayed an IC50 of 30 nM.

Consider `COc1cccc(-c2csc(CN3CCN(c4ccccc4OC)CC3)n2)c1`, for which the half-inhibitory concentration (IC50) was 740 nM.

`COc1cccc(C(=O)NCCN2CCN(Cc3ccc(Cl)cc3)CC2)c1` had an IC50 of 70 nM.

Take `COc1ccc2c(c1)CC(NC(=O)CN1CCN(c3ccccc3OC)CC1)CC2` (stereo not given): the IC50 came to 470 nM.

As for `COc1ccccc1N1CCN(CC(=O)NC2CCc3c(cccc3OC)C2)CC1` (stereo not given), the 50% inhibitory concentration (IC50) came out at 850 nM.

On to `COc1cccc(C(=O)CCCN2CCN(c3ccccc3OC)CC2)c1`, for which the IC50 came out at 3.1 nM.

Take `COc1ccccc1C(=O)NCCN1CCN(c2ccccc2OC)CC1`: the IC50 was 4 nM.

In the case of `COc1ccccc1N1CCN(CCC(=O)NC2CCc3c(cccc3OC)C2)CC1` (stereo not given), the 50% inhibitory concentration (IC50) was determined as 120 nM.

As to `COc1ccc2c(c1)C(CCCN1CCN(c3ccccc3OC)CC1)CCC2` (stereo not given), the IC50 was found to be 280 nM.

The compound `COc1cccc(C(=O)NCCN2CCN(c3ccc(Cl)cc3)CC2)c1` yielded an IC50 of 0.057 nM.

Another test has as its target T2, 5-hydroxytryptamine receptor 1A (Rattus norvegicus, UniProt P19327).
T2 sequence (P19327 whole entry): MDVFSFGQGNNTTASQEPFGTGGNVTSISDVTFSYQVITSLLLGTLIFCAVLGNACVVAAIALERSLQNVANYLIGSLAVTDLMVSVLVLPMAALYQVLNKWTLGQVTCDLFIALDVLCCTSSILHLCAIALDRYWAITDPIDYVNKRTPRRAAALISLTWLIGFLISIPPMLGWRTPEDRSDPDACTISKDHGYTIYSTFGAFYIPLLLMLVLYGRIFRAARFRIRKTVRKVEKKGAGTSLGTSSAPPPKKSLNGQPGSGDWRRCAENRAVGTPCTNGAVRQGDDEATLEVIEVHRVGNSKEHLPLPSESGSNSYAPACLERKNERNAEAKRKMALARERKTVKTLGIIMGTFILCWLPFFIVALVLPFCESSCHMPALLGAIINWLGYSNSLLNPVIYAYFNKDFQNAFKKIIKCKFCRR
Kind of test: Binding affinity was measured at the serotonin 5-hydroxytryptamine 1A receptor using [3H]8-OH-DPAT as radioligand in rat hippocampal membrane. In kind it is cell membranes, Hippocampus.
With `COc1cccc(C(=O)NCCN2CCN(c3ccc(Cl)cc3)CC2)c1`, the IC50 worked out at 220 nM.

The next test addresses T3, Adrenergic receptor alpha-1 (Rattus norvegicus, UniProt P15823+P23944+P43140).
T3 sequence (P15823 whole entry): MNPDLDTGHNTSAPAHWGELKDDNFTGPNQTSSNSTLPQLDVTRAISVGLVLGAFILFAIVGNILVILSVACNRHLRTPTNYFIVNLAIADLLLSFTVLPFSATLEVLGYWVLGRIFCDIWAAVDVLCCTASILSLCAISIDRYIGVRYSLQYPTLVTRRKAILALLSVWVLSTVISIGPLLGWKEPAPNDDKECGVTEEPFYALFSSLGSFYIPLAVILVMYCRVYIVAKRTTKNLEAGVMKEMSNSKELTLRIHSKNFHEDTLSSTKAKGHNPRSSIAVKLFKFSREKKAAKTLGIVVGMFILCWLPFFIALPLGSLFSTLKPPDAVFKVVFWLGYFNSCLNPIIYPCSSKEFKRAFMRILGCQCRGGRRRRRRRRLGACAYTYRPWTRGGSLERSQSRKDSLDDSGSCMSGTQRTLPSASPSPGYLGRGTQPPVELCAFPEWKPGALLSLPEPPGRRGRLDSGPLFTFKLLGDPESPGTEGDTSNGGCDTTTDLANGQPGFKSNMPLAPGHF
T3 sequence (P23944 whole entry): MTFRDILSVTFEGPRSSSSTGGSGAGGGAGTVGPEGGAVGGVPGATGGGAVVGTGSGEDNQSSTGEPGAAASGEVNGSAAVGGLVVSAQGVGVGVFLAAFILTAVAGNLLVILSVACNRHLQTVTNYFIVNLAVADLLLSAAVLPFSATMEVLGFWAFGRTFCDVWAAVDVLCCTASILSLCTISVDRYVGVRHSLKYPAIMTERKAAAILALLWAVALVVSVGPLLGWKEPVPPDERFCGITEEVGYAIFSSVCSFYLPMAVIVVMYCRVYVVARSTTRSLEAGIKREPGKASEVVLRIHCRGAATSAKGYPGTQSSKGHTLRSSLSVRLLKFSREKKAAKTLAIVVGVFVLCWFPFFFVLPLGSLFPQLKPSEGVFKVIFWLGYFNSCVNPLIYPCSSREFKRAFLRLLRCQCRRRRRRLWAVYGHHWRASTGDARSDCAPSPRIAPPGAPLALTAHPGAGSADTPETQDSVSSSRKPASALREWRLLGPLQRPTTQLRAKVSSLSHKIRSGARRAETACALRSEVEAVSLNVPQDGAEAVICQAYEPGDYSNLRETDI
T3 sequence (P43140 whole entry): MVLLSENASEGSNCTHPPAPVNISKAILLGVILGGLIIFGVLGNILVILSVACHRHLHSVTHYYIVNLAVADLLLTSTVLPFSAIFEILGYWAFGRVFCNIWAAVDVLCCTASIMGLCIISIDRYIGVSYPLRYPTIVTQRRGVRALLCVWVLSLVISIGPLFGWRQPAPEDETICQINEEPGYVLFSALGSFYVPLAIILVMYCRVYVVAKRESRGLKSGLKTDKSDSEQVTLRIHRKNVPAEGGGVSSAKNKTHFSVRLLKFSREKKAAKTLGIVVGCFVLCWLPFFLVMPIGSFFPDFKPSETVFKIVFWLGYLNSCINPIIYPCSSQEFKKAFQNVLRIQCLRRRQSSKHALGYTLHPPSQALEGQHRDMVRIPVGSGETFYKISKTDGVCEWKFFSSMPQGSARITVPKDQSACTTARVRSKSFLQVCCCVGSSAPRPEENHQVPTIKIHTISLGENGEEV
Put plainly: Binding affinity was measured at the Alpha-1 adrenergic receptor using [3H]prazosin as radioligand in rat brain cortex membrane. The class given is cell membranes.
In turn, `COc1cccc(C(=O)NCCN2CCN(c3ccc(Cl)cc3)CC2)c1` registered a concentration for half-maximal inhibition (IC50) of 270 nM.

The target in the next test is T1, D(4) dopamine receptor. Put plainly: In vitro binding affinity was measured at the cloned human Dopamine receptor D4.2 using [3H]YM-09151-2 as radioligand.
In general, Ki refers to a dissociation constant, usually derived from enzyme kinetics or from competition with a known ligand. Low readings indicate higher affinity, high ones lower affinity. `COc1ccccc1N1CCN(CCNC2=Nc3ccccc3OC2)CC1` displayed an inhibition constant (Ki) of 3 nM.

For `COc1ccccc1N1CCN(Cc2ccn(-c3ccccc3)c2)CC1`, affinity was put at a Ki of 0.7 nM.
